Like-named read-outs stand apart in the source and are kept apart here.
Key:
[1] = biological target: T1, recombinant human Caspase-1 (Homo sapiens, UniProt P29466); test: Caspase-1 inhibitory activity, fluorescent substrate Ac-YVAD-AFC; assay type: biochemical
T1 construct: purchased Enzo life science
T1 sequence (P29466 120-297 limits assumed): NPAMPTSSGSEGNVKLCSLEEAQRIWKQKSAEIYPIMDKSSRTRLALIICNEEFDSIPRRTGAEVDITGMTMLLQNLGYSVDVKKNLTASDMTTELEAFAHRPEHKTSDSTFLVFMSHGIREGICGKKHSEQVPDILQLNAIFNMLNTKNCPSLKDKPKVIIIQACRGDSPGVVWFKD
T1 sequence (P29466 317-404 limits assumed): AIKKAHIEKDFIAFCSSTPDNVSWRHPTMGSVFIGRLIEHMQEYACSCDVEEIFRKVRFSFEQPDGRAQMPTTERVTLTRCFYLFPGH
Protocol: To determine the Caspase-1 inhibitory activity of the compounds of the present invention prepared in Example, Caspase-1 activity was measured using a substrate with a fluorescent dye attached to it. […] The compound was dissolved in DMSO and stored at −20° C. Enzymatic reactions were carried out in a buffer comprising 50 mM HEPES (pH 8.0), 50 mM KCl, 200 mM NaCl, 10 mM DTT, 0.1% CHAPS (w/v). Enzyme inactivation was measured in the presence of different concentrations of the compound using the fluorescent substrate N-Acetyl-Tyr-Val-Ala-Asp-7-amido-4-trifluoromethylcoumarin (Ac-YVAD-AFC) (Sigma) at a concentration of 50 μM and 1 unit of recombinant human Caspase-1 (Enzo life science). A CLARIOstar Plus spectrometer (BMG Labtech) was used to measure the reaction rate as a function of time in the 400/505 nm (Ex/Em) wavelength band. […] If kobs/[I] is 20 or more, it is denoted as A, if it is 10 or more but less than 20, it is denoted as B, if it is 1 or more but less than 10, it is denoted as C, and if it is less than 1, it is denoted as D.
In the above equation, At means the enzyme reaction rate at time t (min), and Amax means the maximum reaction rate.

[2] = test system: Secreted IL-1β in THP-1 cells; test: Interleukin-1β inhibitory activity in human monocytic cells THP-1 (ELISA); assay type: cell-based; settings: compound 100 nM, PMA-differentiated THP-1, LPS 10 μg/ml then 5 mM ATP, 24 h
Protocol: Caspase-1 is known as […] (ICE). Activated Caspase-1 is involved in the cleavage of pro-form IL-1β to produce the mature form, which is then secreted to induce inflammation. Therefore, the compounds identified in Experimental example 1 were tested to determine if their Caspase-1 inhibitory activity affected the production of […].
THP-1 (ATCC) cells were cultured in RPMI 1640 (Hyclone) growth medium comprising 10% Fetal bovine serum (FBS, Gibco) and antibiotics (100 U/ml Penicillin, 0.1 mg/ml Streptomycin, Cytiva) under 37° C., 5% CO2 conditions. Cultured THP-1 cells were seeded in growth medium to a concentration of 3×10^5 cells/well in 24-well plates (Celvest) and then treated with 1 μM Phorbol 12-myristate 13-acetate (PMA) (Sigma) for 24 hours to induce differentiation. Differentiated THP-1 were pre treated with 10 μg/ml Lipopolysaccharide (LPS, from E. coli 0111:B4 (InvivoGen)) in serum free RPMI 1640 medium for 24 hours to induce an inflammatory response. After removal of LPS, the compounds were pretreated for 1 h at a concentration of 100 nM using the same medium, followed by the addition of 5 mM ATP (InvivoGen) and incubation for 24 h in an incubator. The treated medium was collected and centrifuged, and IL-1β was quantified using an Enzyme linked immunoassay kit (ELISA kit, R&D system), and absorbance was measured at 450 nm using a CLARIOstar Plus spectrometer. Inhibitory activity was denoted as a if it was 50% or more, b if it was 30% or more but less than 50%, c if it was 10% or more but less than 30%, and d if it was less than 10%.

Jurkat cells = test: Apoptosis inhibition activity in human T-lymphocyte cells Jurkat (anti-FAS antibody, intracellular ATP); assay type: cell-based; settings: compound 50 nM, 1 μg/ml anti-FAS antibody 24 h, ATP luminescence
Protocol: To evaluate the effect of the compound of the present invention on apoptosis, Jurkat (ATCC) cells were treated with anti-FAS antibody CH-11 (Merck) to induce apoptosis via the Fas (CD95) receptor, which was assessed by the amount of intracellular ATP.
Jurkat cells were cultured in RPMI 1640 growth medium comprising 10% FBS and antibiotics (100 U/ml Penicillin, 0.1 mg/ml Streptomycin) under 37° C., 5% CO2 conditions. Cultured cells were seeded in growth medium to a concentration of 8×10^4 cells/well in 96-well plates (SPL), pretreated with compound at a concentration of 50 nM for 1 hour, and then treated with 1 μg/ml anti-FAS antibody for 24 hours in an incubator. After 24 h, an ATP lite Luminescence assay kit (PerkinElmer) was used to measure ATP and luminescence was measured at 580 nm using a CLARIOstar Plus spectrometer. If the inhibitory activity is 30% or more, it is denoted as a′, if it is 20% or more but less than 30%, it is denoted as b′, if it is 10% or more but less than 20%, it is denoted as c′, and if it is less than 10%, it is denoted as d′.

[3] = pH 8, 1 unit recombinant human Caspase-1, 50 μM Ac-YVAD-AFC, read-out: kobs/[I] Caspase-1
[4] = pH 8, read-out: kobs/[I] Caspase-1

## CCC(C(=O)NC(CC(=O)O)C(=O)CF)N1Cc2ccc(-c3cccnc3)cc2C1=O (centres unmarked) [Compound 4, 5-fluoro-4-oxo-3-(2-(1-oxo-6-(pyridin-3-yl)isoindolin-2-yl)butanamido)pentanoic acid]
[1]; [3]
  kinact/KI: 0.0167 to 0.167 M⁻¹ s⁻¹
[2]
  inhibition at 0.1 µM: 30 to 50%
Jurkat cells
  inhibition at 0.05 µM: 10 to 20%

## CCC(C(=O)NC(CC(=O)O)C(=O)CF)N1Cc2ccc(-c3cnc4ccccc4c3)cc2C1=O (centres unmarked) [Compound 37, 5-fluoro-4-oxo-3-(2-(1-oxo-6-(quinolin-3-yl)isoindolin-2-yl)butanamido)pentanoic acid]
[1]; [4]
  kinact/KI: 0.0167 to 0.167 M⁻¹ s⁻¹
[2]
  inhibition at 0.1 µM: 10 to 30%
Jurkat cells
  inhibition at 0.05 µM: < 10%

## CCC(C(=O)NC(CC(=O)O)C(=O)CF)N1Cc2ccc(N3CCn4cc(C(F)(F)F)nc4C3)cc2C1=O (centres unmarked) [Compound 10, 5-fluoro-4-oxo-3-(2-(1-oxo-6-(2-(trifluoromethyl)-5,6-dihydroimidazo[1,2-a]pyrazin-7(8H)-yl)isoindolin-2-yl)butanamido)pentanoic acid]
[1]; [3]
  kinact/KI: 0.0167 to 0.167 M⁻¹ s⁻¹
[2]
  inhibition at 0.1 µM: 30 to 50%
Jurkat cells
  inhibition at 0.05 µM: 10 to 20%

## O=C(O)CC(NC(=O)CN1Cc2ccc(-c3csc4ccccc34)cc2C1=O)C(=O)CF (centres unmarked) [Compound 40, 3-(2-(6-(benzo[b]thiophen-3-yl)-1-oxoisoindolin-2-yl)acetamido)-5-fluoro-4-oxopentanoic acid]
[1]; [4]
  kinact/KI: 0.0167 to 0.167 M⁻¹ s⁻¹
[2]
  inhibition at 0.1 µM: < 10%
Jurkat cells
  inhibition at 0.05 µM: < 10%

## CCC(C(=O)NC(CC(=O)O)C(=O)CF)N1Cc2ccc(-c3ccc4ncccc4c3)cc2C1=O (centres unmarked) [Compound 30, 5-fluoro-4-oxo-3-(2-(1-oxo-6-(quinolin-6-yl)isoindolin-2-yl)butanamido)pentanoic acid]
[1]; [3]
  kinact/KI: 0.167 to 0.333 M⁻¹ s⁻¹
[2]
  inhibition at 0.1 µM: < 10%
Jurkat cells
  inhibition at 0.05 µM: < 10%

## O=C(O)CC(NC(=O)CN1Cc2ccc(-c3ccc4occc4c3)cc2C1=O)C(=O)CF (centres unmarked) [Compound 41, 3-(2-(6-(benzofuran-5-yl)-1-oxoisoindolin-2-yl)acetamido)-5-fluoro-4-oxopentanoic acid]
[1]; [4]
  kinact/KI: 0.0167 to 0.167 M⁻¹ s⁻¹
[2]
  inhibition at 0.1 µM: < 10%
Jurkat cells
  inhibition at 0.05 µM: < 10%

## CC[C@@H](C(=O)NC(CC(=O)O)C(=O)CF)N1Cc2ccc(-c3ccc4[nH]c(=O)[nH]c4c3)cc2C1=O (stereo partly drawn) [Compound 56, 5-fluoro-4-oxo-3-((S)-2-(1-oxo-6-(2-oxo-2,3-dihydro-1H-benzo[d]imidazol-5-yl)isoindolin-2-yl)butanamido)pentanoic acid]
[1]; [3]
  kinact/KI: 0.167 to 0.333 M⁻¹ s⁻¹
[2]
  inhibition at 0.1 µM: ≥ 50%
Jurkat cells
  inhibition at 0.05 µM: < 10%

## CC[C@@H](C(=O)NC(CC(=O)O)C(=O)CF)N1Cc2cc(-c3ccc4c(c3)OCCO4)ccc2C1=O (stereo partly drawn) [Compound 58, 3-((S)-2-(5-(2,3-dihydrobenzo[b][1,4]dioxin-6-yl)-1-oxoisoindolin-2-yl)butanamido)-5-fluoro-4-oxopentanoic acid]
[1]; [4]
  kinact/KI: 0.0167 to 0.167 M⁻¹ s⁻¹
[2]
  inhibition at 0.1 µM: 10 to 30%
Jurkat cells
  inhibition at 0.05 µM: 10 to 20%

## CC[C@@H](C(=O)NC(CC(=O)O)C(=O)CF)N1Cc2cc(-c3coc4ccccc34)ccc2C1=O (stereo partly drawn) [Compound 57, 3-((S)-2-(5-(benzofuran-3-yl)-1-oxoisoindolin-2-yl)butanamido)-5-fluoro-4-oxopentanoic acid]
[1]; [4]
  kinact/KI: 0.0167 to 0.167 M⁻¹ s⁻¹
[2]
  inhibition at 0.1 µM: 10 to 30%
Jurkat cells
  inhibition at 0.05 µM: 20 to 30%

## CCC(C(=O)NC(CC(=O)O)C(=O)CF)N1Cc2ccc(-c3cncc4ccccc34)cc2C1=O (centres unmarked) [Compound 29, 5-fluoro-3-(2-(6-(isoquinolin-4-yl)-1-oxoisoindolin-2-yl)butanamido)-4-oxopentanoic acid]
[1]; [3]
  kinact/KI: 0.0167 to 0.167 M⁻¹ s⁻¹
[2]
  inhibition at 0.1 µM: < 10%
Jurkat cells
  inhibition at 0.05 µM: < 10%

## CC[C@@H](C(=O)N[C@@H](CC(=O)O)C(=O)COc1c(F)c(F)cc(F)c1F)N1Cc2ccc(-c3ccc4c(c3)OCCO4)cc2C1=O [Compound 51, (S)-3-((S)-2-(6-(2,3-di hydrobenzo[b][1,4]dioxin-6-yl)-1-oxoisoindolin-2-yl)butanamido)-4-oxo-5-(2,3,5,6-tetrafluorophenoxy)pentanoic]
[1]; [3]
  kinact/KI: 0.167 to 0.333 M⁻¹ s⁻¹
[2]
  inhibition at 0.1 µM: 30 to 50%
Jurkat cells
  inhibition at 0.05 µM: 20 to 30%

## CCC(C(=O)NC(CC(=O)O)C(=O)CF)N1Cc2ccc(-c3ccc4[nH]c(=O)[nH]c4c3)cc2C1=O (centres unmarked) [Compound 8, 5-fluoro-4-oxo-3-(2-(1-oxo-6-(2-oxo-2,3-dihydro-1H-benzo[d]imidazol-5-yl)isoindolin-2-yl)butanamido)pentanoic acid]
[1]; [3]
  kinact/KI: 0.0167 to 0.167 M⁻¹ s⁻¹
[2]
  inhibition at 0.1 µM: ≥ 50%
Jurkat cells
  inhibition at 0.05 µM: 10 to 20%

## CCC(C(=O)NC(CC(=O)O)C(=O)CF)N1Cc2ccc(-c3ccc(S(C)(=O)=O)cc3F)cc2C1=O (centres unmarked) [Compound 12, 5-fluoro-3-(2-(6-(2-fluoro-4-(methylsulfonyl)phenyl)-1-oxoisoindolin-2-yl)butanamido)-4-oxopentanoic acid]
[1]; [3]
  kinact/KI: 0.0167 to 0.167 M⁻¹ s⁻¹
[2]
  inhibition at 0.1 µM: 10 to 30%

## CCC(C(=O)NC(CC(=O)O)C(=O)CF)N1Cc2ccc(-c3ccnc(N)c3)cc2C1=O (centres unmarked) [Compound 23, 3-(2-(6-(2-aminopyridin-4-yl)-1-oxoisoindolin-2-yl)butanamido)-5-fluoro-4-oxopentanoic acid]
[1]; [3]
  kinact/KI: 0.0167 to 0.167 M⁻¹ s⁻¹
[2]
  inhibition at 0.1 µM: < 10%

## CCC(C(=O)NC(CC(=O)O)C(=O)CF)N1Cc2ccc(C3=CCN(S(C)(=O)=O)CC3)cc2C1=O (centres unmarked) [Compound 7, 5-fluoro-3-(2-(6-(1-(methylsulfonyl)-1,2,3,6-tetrahydropyridin-4-yl)-1-oxoisoindolin-2-yl)butanamido)-4-oxopentanoic acid]
[1]; [3]
  kinact/KI: 0.0167 to 0.167 M⁻¹ s⁻¹
[2]
  inhibition at 0.1 µM: < 10%

## CCC(C(=O)NC(CC(=O)O)C(=O)CF)N1Cc2ccc(Nc3cccc4ccccc34)cc2C1=O (centres unmarked) [Compound 11, 5-fluoro-3-(2-(6-(naphthalen-1-ylamino)-1-oxoisoindolin-2-yl)butanamido)-4-oxopentanoic acid]
[1]; [3]
  kinact/KI: < 0.0167 M⁻¹ s⁻¹
[2]
  inhibition at 0.1 µM: 30 to 50%

## CC[C@@H](C(=O)NC(CC(=O)O)C(=O)CF)N1Cc2cc(-c3csc4ccccc34)ccc2C1=O (stereo partly drawn) [Compound 59, 3-((S)-2-(5-(benzo[b]thiophen-3-yl)-1-oxoisoindolin-2-yl)butanamido)-5-fluoro-4-oxopentanoic acid]
[1]; [4]
  kinact/KI: < 0.0167 M⁻¹ s⁻¹
[2]
  inhibition at 0.1 µM: < 10%

## CCC(C(=O)NC(CC(=O)O)C(=O)CF)N1Cc2ccc(-c3ccc(C(F)(F)F)cc3)cc2C1=O (centres unmarked) [Compound 14, 5-fluoro-4-oxo-3-(2-(1-oxo-6-(4-(trifluoromethyl)phenyl)isoindolin-2-yl)butanamido)pentanoic acid]
[1]; [3]
  kinact/KI: 0.0167 to 0.167 M⁻¹ s⁻¹
[2]
  inhibition at 0.1 µM: < 10%

## CCC(C(=O)NC(CC(=O)O)C(=O)CF)N1Cc2ccc(-c3cnn(C)c3)cc2C1=O (centres unmarked) [Compound 24, 5-fluoro-3-(2-(6-(1-methyl-1H-pyrazol-4-yl)-1-oxoisoindolin-2-yl)butanamido)-4-oxopentanoic acid]
[1]; [3]
  kinact/KI: 0.0167 to 0.167 M⁻¹ s⁻¹
[2]
  inhibition at 0.1 µM: 10 to 30%

From US20250109135A1, “NOVEL ISOINDOLINONE DERIVATIVE COMPOUNDS AS CASPASE INHIBITORS” (INNOVO THERAPEUTICS INC., priority 2022, published 2025)
